Experiment in all cases: NCI anticancer screen, dose series, 48 h
Test [1] deals with EKVX NSCLC.
In test [2] the test system is HCT-15 colon.
The test system of test [3] is MCF7 breast.
For test [4], the system named is OVCAR-3 ovarian.
In test [5] the test system is OVCAR-4 ovarian.
For test [6], the system named is OVCAR-5 ovarian.
Test [7] relates to SF-268 CNS.
In test [8] the test system is SK-MEL-28 melanoma.
For test [9], the system named is SK-OV-3 ovarian.
For test [10], the system named is SW-620 colon.

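Step 1: Grow cells in 96-well plates. Step 2: Expose to compound for 48 hours at 5 concentrations. Step 3: Interpolate endpoints linearly; if unreached, use highest concentration. The concentration for 50% growth inhibition is given as GI50. TGI: total growth inhibition.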

Consider `C=C(C)[C@@]1(O)O[C@H]2C[C@@]3(C)OC(=CC3=O)/C(C)=C\[C@@H]3OC(=O)[C@@]1(C)[C@H]32`, for which the TGI in [1] was over 65.1 µM; in test [2] it was 44 µM; in [3] it was 29.1 µM; in [4] it was 34.2 µM; in test [5] it was over 100 µM; in test [6], 19.7 µM. For the same molecule, the TGI in test [7] was 88.2 µM; in test [8], 30.4 µM; in [9], over 100 µM; in test [10], 19.5 µM.
Turning to `COC(=O)c1c2c(cc3c1CC1(Cc4ccccc4C1=O)C3)CCC2` (configuration not stated), the TGI in [1], in [2], in [3], in [4], in test [5] and in test [6] was over 100 µM in each case. Besides, the TGI in test [7], in [8], in [9] and in test [10] was over 100 µM in each case.
For the molecule `COc1c2cc([N+](=O)[O-])cc1CNC(=O)CN1CCOCCOCCN(CCOCCOCC1)CC(=O)NC2`, the TGI in test [1], in test [2], in [3], in test [4], in test [5] and in [6] was over 100 µM throughout. Also, the TGI in test [7], in [8], in test [9] and in test [10] was over 100 µM throughout.
As for `O=C1C(N2CCCC2)=CC(=O)c2c(O)c(N3CCCC3)c(Cl)c(O)c21`, the TGI in test [1], in test [3], in [4], in [5], in test [7] and in [8] was over 10 µM each time. In addition, the TGI in test [9] and in [10] was over 10 µM throughout.
`CNC(=O)c1ccccc1-[s+]1c2ccccc2c(=O)n1C` (configuration not stated): the TGI in [1], in [2], in test [3], in [4], in test [5] and in test [6] was over 100 µM throughout. For the same molecule, the TGI in test [7], in test [8] and in test [10] was over 100 µM each time.
In the case of `O=C1c2ccccc2C(=O)N1n1c(Cc2ccccc2)n[nH]c1=O`, the TGI in test [1], in test [2], in test [3], in [4], in [5] and in test [6] was over 100 µM in each case. In addition, the TGI in test [8] and in test [10] was over 100 µM in each case.
In the case of `CCOC(=O)CCCn1nnc(C(=O)OCC)c1C(=O)OCC`, the TGI in [1], in test [2], in test [3], in test [5], in [7] and in [8] was over 100 µM throughout. Besides, the TGI in [10] is over 100 µM.
For the molecule `CC1(C)O[C@H]2Cn3c(c(C#N)c4ccccc43)[C@H]2O1`, the TGI in test [1], in [2], in [3], in [4], in test [5] and in test [6] was over 100 µM throughout. Further, the TGI in test [7], in test [8] and in test [9] was over 100 µM throughout.
For the molecule `COc1cccc2c1OC1c3ccccc3OCC1C2` (configuration not stated), the TGI in test [1], in test [2], in test [3], in [4], in [6] and in [7] was over 100 µM in each case. Besides, the TGI in [9] and in [10] was over 100 µM in each case.
With `O=C(COc1ccc(OCC(=O)N2C(=O)CC(=O)N(c3ccccc3)C2=S)cc1)N1C(=O)CC(=O)N(c2ccccc2)C1=S`, the TGI in test [1], in test [2], in test [3], in test [5], in [6] and in test [7] was over 100 µM throughout. Besides, the TGI in [8], in [9] and in [10] was over 100 µM in each case.
`O=C1N[C@H]2c3c(Cl)sc(Cl)c3/C(=N/O)[C@H]2O1`: the TGI in test [1], in test [2], in test [3], in [4], in [6] and in [7] was over 100 µM in each case. Besides, the TGI in test [8], in test [9] and in test [10] was over 100 µM each time.
As for `CN(C)c1nc2sc3c(c2c(=O)o1)CCCC3`, the TGI in test [1], in test [2], in test [3], in test [5], in test [6] and in [8] was over 100 µM in each case. The TGI in [9] and in test [10] was over 100 µM in each case.
`CCOC(=O)c1ccc(N=NN(C)C(=O)C(C)N)cc1` (configuration not stated): the TGI in [1], in test [2], in [3], in test [4], in test [5] and in test [6] was over 100 µM throughout. In addition, the TGI in test [7], in [8] and in [10] was over 100 µM throughout.
Regarding `C/C=C/[C@@]1(OC(=O)c2ccccc2)C[C@@H]2CCCC[C@@H]21`, the TGI came to 31.7 µM in test [1]; 36.9 µM in [2]; 33.3 µM in [3]; 32.2 µM in test [5]; 30.8 µM in test [6]; 32.4 µM in [7]. In addition, the results for the TGI in [8], in test [9] and in [10] were 32.9 µM, 32.6 µM and 48.3 µM, respectively.
Turning to `O=C1C2CCCCC2C(=O)N1n1c(Cc2ccc(Cl)cc2)n[nH]c1=O` (configuration not stated), the TGI in [1], in [2], in [3], in test [4], in [5] and in test [6] was over 100 µM each time. Further, the TGI in test [7], in test [9] and in [10] was over 100 µM in each case.
With `Nc1nc2c(=O)c3ccccc3sc2s1`, the TGI in [1], in test [2], in [3], in test [4], in [6] and in test [7] was over 100 µM in each case. The TGI in [8] and in test [10] was over 100 µM throughout.
Turning to `COC(=O)c1cn(CCCC(=O)O)nn1`, the TGI in test [1], in test [2], in test [3], in [5], in test [7] and in test [8] was over 100 µM throughout. The molecule further came in with a TGI in [10] of over 100 µM.
`O=C(Cn1c(=O)oc2ccc(C(=O)c3ccc(F)cc3)cc21)c1ccc([N+](=O)[O-])cc1`: the TGI in test [2], in test [3], in test [5], in [6], in [7] and in test [8] was over 100 µM each time. The TGI in test [9] and in [10] was over 100 µM in each case.
Regarding `O=C1CSC2(CC(/C=C/c3ccccc3)=NN2c2cccc(S(=O)(=O)O)c2)N1c1nc2ccccc2s1` (configuration not stated), the TGI in [1] was over 100 µM; in test [2], over 100 µM; in test [3], 45 µM; in [5] it was 54.1 µM; in test [6], 56.5 µM; in test [8], over 100 µM. The molecule also displayed a TGI in test [10] of over 100 µM.
Consider `Cc1ccc(S(=O)(=O)N/N=C/c2oc(-c3cccc([N+](=O)[O-])c3)c(-c3cccc([N+](=O)[O-])c3)c2[N+](=O)[O-])cc1`, for which the TGI in [1] was over 100 µM; in test [2], over 100 µM; in test [4] it was over 100 µM; in test [5] it was over 100 µM; in [6], over 100 µM; in [7], 66.7 µM. The TGI in test [8] is over 100 µM; in [9], 68.5 µM; in [10], over 100 µM.
As for `O=C(O)c1ccccc1.[Ag]`, the TGI in [1] turned out to be 55.4 µM; in test [2], 49.5 µM; in test [3] it was 36.5 µM; in test [4] it was 28.5 µM; in test [5], 29.9 µM; in [6] it was 45.1 µM. The TGI in test [7] worked out at 50.1 µM; in test [8] it was 32.4 µM; in test [9] it was 31.2 µM.
Turning to `CO/C(=N\N=C\c1cc(OC)ccc1OC)c1ccncc1`, the TGI in [2], in test [3], in test [6], in [7], in [8] and in [9] was over 10 µM throughout. In [10], this molecule yielded a TGI of over 10 µM.
For `Cc1ccc(C2CC(=O)CC(c3ccc(C)cc3)C23C(=O)NC(=O)NC3=O)cc1` (configuration not stated), the TGI in [1], in test [2], in test [3], in [4], in test [5] and in test [6] was over 100 µM throughout. The TGI in test [7], in [8] and in test [10] was over 100 µM in each case.
`O=C(O)[C@H]1[C@@H](C2CCCCC2)O[C@@H](C2CCCCC2)O[C@H]1C(F)(F)F`: the TGI in test [1] was 43.1 µM; in [2], 88.1 µM; in test [4], 39 µM; in test [5], over 100 µM; in test [6], 47.4 µM; in test [7], 44.2 µM. Further, the TGI in test [8] is 41.4 µM; in test [9], over 100 µM; in test [10], 52.8 µM.
With `C1=C\SS/C=C\SS/C=C\SS/C=C\SS/1`, the TGI in test [1] was over 100 µM; in test [2], 55.8 µM; in [3] it was over 100 µM; in test [5], over 100 µM; in test [6], over 100 µM; in [7], over 100 µM. The TGI in [8], in test [9] and in test [10] was over 100 µM in each case.
For `COc1c2c(c3c(c1C1OC(C)[C@@H](C)O1)CC(C)(C)O3)C(=O)c1ccccc1C2=O` (some centres not stated), the TGI in [1], in test [2], in [4], in [5], in test [6] and in test [7] was over 100 µM in each case. For the same molecule, the TGI is over 100 µM in test [8], over 100 µM in test [9] and 63.6 µM in test [10].
Consider `O=S(=O)(c1ccc(Br)cc1)n1c2ccc(Br)cc2c2nc3ccccc3nc21`, for which the TGI in test [1], in [2], in test [4], in test [5], in test [6] and in [7] was over 100 µM throughout. Besides, the TGI in [8], in test [9] and in test [10] was over 100 µM throughout.
For `COc1cc2c(cc1OCCCN1CCN(CCCOc3cc4c(cc3OC)C(=O)N3CCC[C@H]3C=N4)CC1)C=CC(C)(C)O2`, the GI50 is 1360 nM in test [1]; 423 nM in test [3]; 1360 nM in test [4]; 1560 nM in test [5]; 1700 nM in test [6]; 1510 nM in test [8]. Moreover, the GI50 in test [9] is 1610 nM; in test [10], 634 nM. Besides, the TGI in [1] was found to be 2.75 µM; in [3] it was 1.69 µM; in test [4], 2.67 µM; in [5], 3.53 µM; in [6], 3.18 µM; in test [8] it was 2.83 µM. The TGI in test [9] amounted to 2.99 µM; in test [10], 1.93 µM.
In the case of `CCCCNC1CCC2(SCCS2)c2[nH]c3ccccc3c21` (configuration not stated), the TGI was over 100 µM in test [1]; 13.2 µM in test [3]; 46.7 µM in test [4]; over 100 µM in [5]; over 100 µM in [6]; over 100 µM in [7]. For the same molecule, the TGI is over 100 µM in test [8], over 100 µM in [9] and over 82.6 µM in [10].

The values are drawn from PubChem BioAssay (NCI).
